Reference: patent US11000033B2, “Ketone or oxime compound, and herbicide” (NISSAN CHEMICAL CORPORATION, priority 2014, dated 2021)

What was measured:
Assay type in all cases: in vivo
[1] = tested on: directly sowed rice plant; assay: Test Example 3: effect on crop by foliage application, Wagner pot (symbol b); settings: application herbicide amount 320 g/ha
In short: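 Greenhouse culture at 25–30 °C of seeded rice, Cyperus difformis, Leptochloa chinensis and Echinochloa crus-galli var. crus-galli, in alluvial soil held under 0.1–0.5 cm of water in a Wagner pot.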

Leptochloa chinensis = assay: Test Example 3: herbicidal effect by foliage application, Wagner pot (symbol D); settings: application herbicide amount 320 g/ha
In short: (§1)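 Foliar spray of water-diluted emulsion formulation at a predetermined herbicide amount onto 14-day-old plants in flooded alluvial soil (water depth 0.1–0.5 cm), greenhouse 25–30 °C; rice sown alongside. Scored 3 wk post-application on set criteria.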

Chenopodium album [2] = assay: Test Example 5: herbicidal effect by foliage application, plastic box (symbol O); settings: 320 g/ha, 3 weeks after application
In short: (§2)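 Herbicide, formulated as an emulsion and diluted in water, is sprayed onto the aerial parts of 14-day seedlings. These were grown at 25° C. to 30° C. in sterilized diluvial soil; effects are graded after 3 weeks.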

Cyperus difformis = assay: Test Example 3: herbicidal effect by foliage application, Wagner pot (symbol E); settings: application herbicide amount 320 g/ha
In short: as §1

transplanted rice plant = assay: Test Example 1: effect on crop, application before weed generation in submerged conditions (symbol a); settings: application herbicide amount 320 g/ha
In short: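 Rice at 2.5 leaf stage transplanted into submerged soil (4 cm depth) sown with three weed species; herbicide applied before weed emergence.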

Stellaria media = assay: Test Example 5: herbicidal effect by foliage application, plastic box (symbol P); settings: 320 g/ha, 3 weeks after application
In short: as §2

Chenopodium album [3] = assay: Test Example 4: herbicidal effect by soil treatment (symbol O); settings: application herbicide amount 320 g/ha
In short: (§3)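 Seeds were sown in sterilized diluvial soil, covered with about 1.5 cm of soil, and the soil surface was sprayed with a water-diluted emulsion of the compound at a predetermined rate. Plants grew in a greenhouse at 25° C. to 30° C.; effects were scored visually 3 weeks after application.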

Apera spica-venti [4] = assay: Test Example 5: herbicidal effect by foliage application, plastic box (symbol L); settings: 320 g/ha, 3 weeks after application
In short: as §2

Monochoria vaginalis = assay: Test Example 2: herbicidal activity, application during weed generation in submerged conditions (symbol C); settings: Table 23; application herbicide amount 320 g/ha; grade 0-5 by criteria of Test Example 1
In short: (§4)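 Paddy pot test, submerged (4 cm water), alluvial soil, mixed sowing; greenhouse 25–30° C. Emulsion formulation diluted to predetermined rate, applied onto floodwater at 1–2 leaf stage. Visual herbicidal rating at 3 wk post-treatment.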

[5] = tested on: Echinochloa crus-galli var. crus-galli; assay: Test Example 4: herbicidal effect by soil treatment (symbol H); settings: application herbicide amount 320 g/ha
In short: as §3

Apera spica-venti [6] = assay: Test Example 4: herbicidal effect by soil treatment (symbol L); settings: application herbicide amount 320 g/ha
In short: as §3

beet = assay: Test Example 4: effect on crop by soil treatment (symbol f); settings: application herbicide amount 320 g/ha
In short: (§5)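 Soil-treatment setup: crop and weed seeds were spot-sown into sterilized diluvial soil, then buried beneath approximately 1.5 cm of it, and the boxes were housed in a 25–30° C. greenhouse.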

rapeseed = assay: Test Example 4: effect on crop by soil treatment (symbol g); settings: application herbicide amount 320 g/ha
In short: as §5

[7] = tested on: Echinochloa crus-galli var. crus-galli; assay: Test Example 3: herbicidal effect by foliage application, Wagner pot (symbol H); settings: application herbicide amount 320 g/ha
In short: as §1

Abutilon theophrasti = assay: Test Example 5: herbicidal effect by foliage application, plastic box (symbol M); settings: 320 g/ha, 3 weeks after application
In short: as §2

Scirpus juncoides = assay: Test Example 2: herbicidal activity, application during weed generation in submerged conditions (symbol B); settings: Table 23; application herbicide amount 320 g/ha; grade 0-5 by criteria of Test Example 1
In short: as §4

Structure (SMILES) | effect on crop b (directly sowed rice plant), grade 0-5 [1] | herbicidal effect on D (Leptochloa chinensis), grade 0-5 (Leptochloa chinensis) | O: Chenopodium album, herbicidal effect (criteria of Test Example 1) (Chenopodium album [2]) | herbicidal effect on E, grade 0-5 (Cyperus difformis) | Effect grade on crop, a: transplanted rice plant (transplanted rice plant) | P: Stellaria media, herbicidal effect (criteria of Test Example 1) (Stellaria media) | O: Chenopodium album, herbicidal effect grade (Chenopodium album [3]) | L: Apera spica-venti, herbicidal effect (criteria of Test Example 1) (Apera spica-venti [4]) | Herbicidal effect grade, C: Monochoria vaginalis (Monochoria vaginalis) | H: Echinochloa crus-galli var. crus-galli, herbicidal effect grade [5] | L: Apera spica-venti, herbicidal effect grade (Apera spica-venti [6]) | f: beet, effect on crop grade (beet) | g: rapeseed, effect on crop grade (rapeseed) | herbicidal effect on H (Echinochloa crus-galli var. crus-galli), grade 0-5 [7] | M: Abutilon theophrasti, herbicidal effect (criteria of Test Example 1) (Abutilon theophrasti) | Herbicidal effect grade, B: Scirpus juncoides (Scirpus juncoides)
CON=C(C)CC1CC(O)=C(c2c(C)cc(-n3cccn3)cc2C)C1=O (stereo not shown) [6-073] | 5 (Herbicidal ratio of 90% or more (almost completely withered)) | 5 (Herbicidal ratio of 90% or more (almost completely withered)) | 3 (Herbicidal ratio of 40% or higher and lower than 70%) | 5 (Herbicidal ratio of 90% or more (almost completely withered)) | 5 (Herbicidal ratio of 90% or more (almost completely withered)) | 2 (Herbicidal ratio of 20% or higher and lower than 40%) | 0 (Herbicidal ratio of 5% or lower (almost no effect)) | 3 (Herbicidal ratio of 40% or higher and lower than 70%) | 1 (Herbicidal ratio of 5% or higher and lower than 20%) | 5 (Herbicidal ratio of 90% or more (almost completely withered)) | 0 (Herbicidal ratio of 5% or lower (almost no effect)) | 0 (Herbicidal ratio of 5% or lower (almost no effect)) | 3 (Herbicidal ratio of 40% or higher and lower than 70%) | 5 (Herbicidal ratio of 90% or more (almost completely withered)) | 0 (Herbicidal ratio of 5% or lower (almost no effect)) | 2 (Herbicidal ratio of 20% or higher and lower than 40%)
CON=C(C)CC1CC(O)=C(c2c(C)cc(-n3cncn3)cc2C)C1=O (stereo not shown) [6-074] | 1 (Herbicidal ratio of 5% or higher and lower than 20%) | 5 (Herbicidal ratio of 90% or more (almost completely withered)) | 0 (Herbicidal ratio of 5% or lower (almost no effect)) | 2 (Herbicidal ratio of 20% or higher and lower than 40%) | 2 (Herbicidal ratio of 20% or higher and lower than 40%) | 0 (Herbicidal ratio of 5% or lower (almost no effect)) | 0 (Herbicidal ratio of 5% or lower (almost no effect)) | 0 (Herbicidal ratio of 5% or lower (almost no effect)) | 0 (Herbicidal ratio of 5% or lower (almost no effect)) | 0 (Herbicidal ratio of 5% or lower (almost no effect)) | 0 (Herbicidal ratio of 5% or lower (almost no effect)) | 0 (Herbicidal ratio of 5% or lower (almost no effect)) | 0 (Herbicidal ratio of 5% or lower (almost no effect)) | 4 (Herbicidal ratio of 70% or higher and lower than 90%) | 0 (Herbicidal ratio of 5% or lower (almost no effect)) | 0 (Herbicidal ratio of 5% or lower (almost no effect))
CON=C(C)CC1CC(O)=C(c2c(C)cc(C)cc2SC)C1=O (stereo not shown) [6-075] | 4 (Herbicidal ratio of 70% or higher and lower than 90%) | 3 (Herbicidal ratio of 40% or higher and lower than 70%) | 0 (Herbicidal ratio of 5% or lower (almost no effect)) | 3 (Herbicidal ratio of 40% or higher and lower than 70%) | 3 (Herbicidal ratio of 40% or higher and lower than 70%) | 0 (Herbicidal ratio of 5% or lower (almost no effect)) | 0 (Herbicidal ratio of 5% or lower (almost no effect)) | 5 (Herbicidal ratio of 90% or more (almost completely withered)) | 1 (Herbicidal ratio of 5% or higher and lower than 20%) | 0 (Herbicidal ratio of 5% or lower (almost no effect)) | 3 (Herbicidal ratio of 40% or higher and lower than 70%) | 0 (Herbicidal ratio of 5% or lower (almost no effect)) | 0 (Herbicidal ratio of 5% or lower (almost no effect)) | 3 (Herbicidal ratio of 40% or higher and lower than 70%) | 0 (Herbicidal ratio of 5% or lower (almost no effect)) | 0 (Herbicidal ratio of 5% or lower (almost no effect))
CON=C(C)CC1CC(O)=C(c2c(C)cc(Br)cc2OC)C1=O (stereo not shown) [6-076, 2-(4-bromo-2-methoxy-6-methylphenyl)-3-hydroxy-5-{2-(methoxyimino)propyl}cyclopent-2-enone] | 5 (Herbicidal ratio of 90% or more (almost completely withered)) | 5 (Herbicidal ratio of 90% or more (almost completely withered)) | 2 (Herbicidal ratio of 20% or higher and lower than 40%) | 5 (Herbicidal ratio of 90% or more (almost completely withered)) | 5 (Herbicidal ratio of 90% or more (almost completely withered)) | 2 (Herbicidal ratio of 20% or higher and lower than 40%) | 0 (Herbicidal ratio of 5% or lower (almost no effect)) | 5 (Herbicidal ratio of 90% or more (almost completely withered)) | 1 (Herbicidal ratio of 5% or higher and lower than 20%) | 5 (Herbicidal ratio of 90% or more (almost completely withered)) | 5 (Herbicidal ratio of 90% or more (almost completely withered)) | 0 (Herbicidal ratio of 5% or lower (almost no effect)) | 2 (Herbicidal ratio of 20% or higher and lower than 40%) | 5 (Herbicidal ratio of 90% or more (almost completely withered)) | 5 (Herbicidal ratio of 90% or more (almost completely withered)) | 1 (Herbicidal ratio of 5% or higher and lower than 20%)
